Source: US9902725B2, “Heterocyclic derivatives as RORgamma modulators” (GENFIT, priority 2014, dated 2018)

How the values were obtained:
human RORγt = biological target: T1, human RORγt (Homo sapiens, UniProt P51449); assay: IL-17 secretion from EL4 murine lymphoma overexpressing human RORγt; format: cell-based; design: expressed in transfected cells; host or cells: EL-4 murine lymphoma; conditions: IL-17 secretion inhibition, PMA and ionomycin stimulation, 24 h
T1 sequence (P51449 1-497 isoform P51449-2): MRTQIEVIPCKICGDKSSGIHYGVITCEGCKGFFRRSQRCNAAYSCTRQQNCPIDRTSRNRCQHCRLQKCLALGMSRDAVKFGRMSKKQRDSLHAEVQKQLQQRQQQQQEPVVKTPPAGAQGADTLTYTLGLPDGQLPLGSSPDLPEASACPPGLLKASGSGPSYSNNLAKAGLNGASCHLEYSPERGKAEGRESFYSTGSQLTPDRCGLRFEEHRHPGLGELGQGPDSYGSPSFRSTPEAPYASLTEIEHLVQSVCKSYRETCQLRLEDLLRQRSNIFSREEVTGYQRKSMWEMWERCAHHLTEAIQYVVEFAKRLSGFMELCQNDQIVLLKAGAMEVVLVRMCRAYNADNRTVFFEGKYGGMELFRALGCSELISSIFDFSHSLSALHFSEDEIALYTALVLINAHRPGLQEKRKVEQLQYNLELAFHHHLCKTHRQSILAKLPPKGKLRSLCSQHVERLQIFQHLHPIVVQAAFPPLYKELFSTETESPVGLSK
Method: Murine EL-4 lymphoma cell line overexpressing human RORγt was used in this functional assay to assess compound ability to inhibit IL-17 cytokine secretion.
EL-4 cells are maintained in a standard culture medium RPMI supplemented with 10% fetal calf serum, 1% sodium pyruvate, 1% essential amino acids and 1% antibiotics at 37° C. in a humidified atmosphere of 5% CO2 and 95% air. Culture medium was changed every 2 days. EL4 cells were transfected with a plasmid encoding hRORγt (sequence identical to published sequence NM 001001523). […] Briefly, 1 μg of DNA/1 million cells was served to transfect EL-4 cells. Cell/DNA suspension was transferred into certified cuvette and the electroporation of RORγt plasmid was carried out using appropriate Nucleofector® program.
Cells were seeded in 96 well plates at a density of 150000 cells/well then treated with compounds of this invention at indicated concentrations and incubated for 24 hours at 37° C. in a humidified atmosphere of 5% CO2 and 95% air. EL-4 cells were pretreated with test compounds (RORγ modulators) and stimulated with PMA (10 ng/mL) and ionomycin (1 μM final concentration) in the presence of test compound concentrations for additional 24 h at 37° C. in a humidified atmosphere of 5% CO2 and 95% air. Subsequently, supernatants were collected (after centrifugation at 300 g for 10 minutes) to determine the concentrations of IL-17 by HTRF (CisBio, France) or ELISA (R&D Systems Europe) according to the manufacturer's protocols.

[1] = biological target: T2, RORγt ligand-binding domain (RORγt-LBD) (Homo sapiens, UniProt P51449); assay: Time-resolved FRET (TR-FRET) RORγt coactivator assay; format: biochemical; conditions: GST-RORγ-LBD, biotinylated RIP140 peptide, coactivator displacement
T2 construct: 20 nM recombinantly expressed RORγ-LBD fused to GST
T2 sequence (P51449 269-508 limits assumed): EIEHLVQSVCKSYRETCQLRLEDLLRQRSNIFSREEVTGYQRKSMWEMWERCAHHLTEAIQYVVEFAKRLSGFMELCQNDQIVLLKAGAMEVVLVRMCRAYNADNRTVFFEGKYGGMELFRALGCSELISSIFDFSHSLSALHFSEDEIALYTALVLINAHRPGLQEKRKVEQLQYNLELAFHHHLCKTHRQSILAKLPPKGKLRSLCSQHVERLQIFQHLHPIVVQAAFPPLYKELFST

Structure (SMILES) | IC50 (human RORγt) [nM] | IC50 [1] [nM]
O=C(O)CCc1c[nH]c2ccc(CC(=O)NC(c3ccccc3)c3cc(Br)ccc3N3CCCC3)cc12 (centres unmarked) [compound 117, 3-{5-[({[5-bromo-2-(pyrrolidin-1-yl)phenyl](phenyl)methyl}carbamoyl)methyl]-1H-indol-3-yl}propanoic acid] | 10000 to 30000 | < 1000
CCNc1cc(C)ccc1C(NC(=O)Cc1ccc2[nH]cc(CCC(=O)O)c2c1)c1ccccc1 (centres unmarked) [compound 120, 3-{5-[({[2-(ethylamino)-4-methylphenyl](phenyl)methyl}carbamoyl)methyl]-1H-indol-3-yl}propanoic acid] | 1000 to 10000 | < 1000
Cc1ccc(C(NC(=O)Cc2ccc3[nH]cc(CCC(=O)O)c3c2)c2ccccc2)c(NC(C)C)c1 (centres unmarked) [compound 126, 3-(5-{[({4-methyl-2-[(propan-2-yl)amino]phenyl}(phenyl)methyl)carbamoyl]methyl}-1H-indol-3-yl)propanoic acid] | 1000 to 10000 | < 1000
COc1ccc(N2CCCCC2)c(C(NC(=O)Cc2ccc3[nH]cc(CCC(=O)O)c3c2)c2ccccc2)c1 (centres unmarked) [compound 136, 3-{5-[({[5-methoxy-2-(piperidin-1-yl)phenyl](phenyl)methyl}carbamoyl)methyl]-1H-indol-3-yl}propanoic acid] | 1000 to 10000 | < 1000
Cc1ccc(C(NC(=O)Cc2ccc3[nH]cc(CCC(=O)O)c3c2)c2ccc(C)s2)c(N2CCCCC2)c1 (centres unmarked) [compound 138, 3-{5-[({[4-methyl-2-(piperidin-1-yl)phenyl](5-methylthiophen-2-yl)methyl}carbamoyl)methyl]-1H-indol-3-yl}propanoic acid] | 1000 to 10000 | < 1000
Cc1ccc(C(NC(=O)Cc2ccc3[nH]cc(CCC(=O)O)c3c2)c2nccs2)c(N2CCCCC2)c1 (centres unmarked) [compound 140, 3-{5-[({[4-methyl-2-(piperidin-1-yl)phenyl](1,3-thiazol-2-yl)methyl}carbamoyl)methyl]-1H-indol-3-yl}propanoic acid] | 1000 to 10000 | < 1000
Cc1ccc(C(NC(=O)Cc2ccc3[nH]cc(CCC(=O)O)c3c2)c2ccccc2)c(OC(C)C)c1 (centres unmarked) [compound 146, 3-{5-[({[4-methyl-2-(propan-2-yloxy)phenyl](phenyl)methyl}carbamoyl)methyl]-1H-indol-3-yl}propanoic acid] | 1000 to 10000 | < 1000
CCOc1ccc(C(NC(=O)Cc2ccc3[nH]cc(CCC(=O)O)c3c2)c2ccccc2)c(N2CCCCC2)c1 (centres unmarked) [compound 150, 3-{5-[({[4-ethoxy-2-(piperidin-1-yl)phenyl](phenyl)methyl}carbamoyl)methyl]-1H-indol-3-yl}propanoic acid] | 1000 to 10000 | < 1000
CC(C)Oc1ccc(C(NC(=O)Cc2ccc3[nH]cc(CCC(=O)O)c3c2)c2ccccc2)c(N2CCCCC2)c1 (centres unmarked) [compound 152, 3-{5-[({phenyl[2-(piperidin-1-yl)-4-(propan-2-yloxy)phenyl]methyl}carbamoyl)methyl]-1H-indol-3-yl}propanoic acid] | 10000 to 30000 | < 1000
Cc1ccc(C(NC(=O)Cc2ccc3[nH]nc(CCC(=O)O)c3c2)c2ccccc2)c(OC(C)C)c1 (centres unmarked) [compound 160, 3-{5-[({[4-methyl-2-(propan-2-yloxy)phenyl](phenyl)methyl}carbamoyl)methyl]-1H-indazol-3-yl}propanoic acid] | 10000 to 30000 | < 1000
CCN(CC)c1ccccc1C(CC(C)C)NC(=O)Cc1ccc2[nH]cc(CCC(=O)O)c2c1 (centres unmarked) [compound 174, 3-{5-[({1-[2-(diethylamino)phenyl]-3-methylbutyl}carbamoyl)methyl]-1H-indol-3-yl}propanoic acid] | 1000 to 10000 | 1000 to 10000
Cc1ccc(C(NC(=O)Cc2ccc3[nH]cc(CCC(=O)O)c3c2)c2ccccc2)c(N2CC=CC2)c1 (centres unmarked) [compound 200, 3-{5-[({[2-(2,5-dihydro-1H-pyrrol-1-yl)-4-methylphenyl](phenyl)methyl}carbamoyl)methyl]-1H-indol-3-yl}propanoic acid] | 1000 to 10000 | < 1000
Cc1ccc(C(C(=O)NCc2ccc3[nH]cc(CCC(=O)O)c3c2)c2ccccc2)c(N2CCCCC2)c1 (centres unmarked) [compound 209, 3-[5-({2-[4-methyl-2-(piperidin-1-yl)phenyl]-2-phenylacetamido}methyl)-1H-indol-3-yl]propanoic acid] | 1000 to 10000 | < 1000

Further lines, results first:

IC50 (human RORγt) [nM] | IC50 [1] [nM] | Structure (SMILES)
1000 to 10000 | < 1000 | COc1ccc(C(NC(=O)Cc2ccc3[nH]cc(CCC(=O)O)c3c2)c2ccccc2)c(N2CCCCCC2)c1 (centres unmarked) [compound 142, 3-{5-[({[2-(azepan-1-yl)-4-methoxyphenyl](phenyl)methyl}carbamoyl)methyl]-1H-indol-3-yl}propanoic acid]
1000 to 10000 | < 1000 | O=C(O)CCc1c[nH]c2ccc(CC(=O)NC3(c4ccccc4N4CCCCC4)CCCCC3)cc12 [compound 144, 3-{5-[({1-[2-(piperidin-1-yl)phenyl]cyclohexyl}carbamoyl)methyl]-1H-indol-3-yl}propanoic acid]
1000 to 10000 | < 1000 | Cc1ccc(C(NC(=O)Cc2ccc3[nH]cc(CCC(=O)O)c3c2)c2ccccc2N2CCCCC2)o1 (centres unmarked) [compound 148, 3-[5-({[(5-methylfuran-2-yl)[2-(piperidin-1-yl)phenyl]methyl]carbamoyl}methyl)-1H-indol-3-yl]propanoic acid]
1000 to 10000 | < 1000 | Cc1cccc(C(NC(=O)Cc2ccc3[nH]cc(CCC(=O)O)c3c2)c2ccccc2N2CCCCC2)c1 (centres unmarked) [compound 158, 3-[5-({[(3-methylphenyl)[2-(piperidin-1-yl)phenyl]methyl]carbamoyl}methyl)-1H-indol-3-yl]propanoic acid]
1000 to 10000 | 1000 to 10000 | O=C(O)CCc1c[nH]c2ccc(CC(=O)NC(CC3CCCCC3)c3ccccc3N3CCCCC3)cc12 (centres unmarked) [compound 162, 3-{5-[({2-cyclohexyl-1-[2-(piperidin-1-yl)phenyl]ethyl}carbamoyl)methyl]-1H-indol-3-yl}propanoic acid]
1000 to 10000 | < 1000 | CC(C)(C)CC(NC(=O)Cc1ccc2[nH]cc(CCC(=O)O)c2c1)c1ccccc1N1CCCCC1 (centres unmarked) [compound 186, 3-{5-[({3,3-dimethyl-1-[2-(piperidin-1-yl)phenyl]butyl}carbamoyl)methyl]-1H-indol-3-yl}propanoic acid]
10000 to 30000 | < 1000 | Cc1ccc(C(NC(=O)Cc2ccc3[nH]cc(CCC(=O)O)c3c2)c2ccccc2N2CCCCC2)cc1 (centres unmarked) [compound 188, 3-[5-({[(4-methylphenyl)[2-(piperidin-1-yl)phenyl]methyl]carbamoyl}methyl)-1H-indol-3-yl]propanoic acid]
1000 to 10000 | < 1000 | CC(C)CC(NC(=O)Cc1ccc2[nH]cc(CCC(=O)O)c2c1)c1ccccc1N1CCCCCC1 (centres unmarked) [compound 198, 3-{5-[({1-[2-(azepan-1-yl)phenyl]-3-methylbutyl}carbamoyl)methyl]-1H-indol-3-yl}propanoic acid]
1000 to 10000 | < 1000 | Cc1cccc(C(NC(=O)Cc2ccc3[nH]cc(CCC(=O)O)c3c2)c2ccccc2)c1N1CCCCC1 (centres unmarked) [compound 202, 3-{5-[({[3-methyl-2-(piperidin-1-yl)phenyl](phenyl)methyl}carbamoyl)methyl]-1H-indol-3-yl}propanoic acid]
